Like-named read-outs stand apart in the source and are kept apart here.

For experiment [1], the system named is HEPM cells. In words: Growth stimulation assay: incorporation of 5-[125I]iodo-2'-deoxyuridine into DNA of quiescent HEPM cells. It is filed as cell-based, human. Particulars: 66 h + 6 h radionuclide label. The protocol:
FIGS. 1(A) and 1(B) Bioactivity of TGF-β on HEPM cells: incorporation of radionuclide into DNA. Results are presented as percent stimulation vs the picomolar (pM) concentration of TGF-β. Percent stimulation was calculated as follows: treated (cpm)-untreated (cpm)/untreated (cpm) x 100. Panel A: TGF-β1, treatment. Panel B: TGF-β2 treatment.
HEPM cells (5,000 cells/50 μl ) were subcultured in 96-well tissue culture plates (Falcon 30072) in growth medium comprising minimal essential medium (Gibco, Grand Island, N.Y.) supplemented with 10% heat-inactivated fetal bovine serum, 600 μg/ml L-glutamine, 500 μg/ml penicillin and 500 μg/ml streptomycin for a 24-hour period at 37° C. in a humidified 5% CO2 /95% air atosphere. A nondividing, quiescent state of growth was achieved by subsequent incubation for 48 hours in growth medium supplemented with 0.5% fetal bovine serum. Quiescent cells were then stimulated to proliferate by the addition of fetal bovine serum (10 μl ) and test samples of TGF-β1, or TGF-β2 (50 μl). The cells were incubated an additional 66 hours at 37° C. […] The amount of cell growth was measured by the amount of radionuclide incorporated into the DNA of actively growing cells.

In experiment [2] the test system is HEPM cells. In words: Co-stimulation with EGF assay (radionuclide incorporation into DNA). It is filed as cell-based, human. As to the method:
Quiescent HEPM cells were stimulated to proliferate by the addition of fetal bovine serum (15 μ) and test samples of TGF-β2 (50 μl) and/or EGF (50 μl), resulting in a total assay volume of 165 μl. The amount of cell growth was measured by the amount of radionuclide incorporated into the DNA of actively growing cells.
The response of HEPM cells to TGF-β treatment in the presence of EGF was determined by radiolabeling the DNA of dividing cells as described in Materials and Methods. A suboptimal dose of TGF-β2 was analyzed for growth stimulatory activity in the presence of EGF. […] HEPM cells treated with both EGF and TGF-β2 at the same doses gave a 511% stimulation, a potentiated response of 340% over that expected from the sum of the two individual responses.

Experiment [3] relates to HEPM cell-surface receptors for TGF-β. In words: Radioreceptor assay: [125I]-iodo-TGF-β1 in competition with unlabeled TGF-β1, Scatchard analysis. In kind it is binding, human. The conditions noted are these: comparison of growth stimulation and receptor binding, FIG. 6. As to the method:
(§1) HEPM cells were grown to confluence (1×10^5 cells/well) in 24-well Costar tissue culture plates. Prior to the binding assay, cells were pre-incubated in serum-free growth medium at 37° C. for 4 hours to allow for the dissociation of TGF-β from occupied cells surface receptors. The resulting monolayers were washed 2 times in binding buffer (Dulbecco's MEM+0.1% BSA+25 mM HEPES). 250 μl of binding buffer containing 0.5 μg/ml [^125 I]-iodoTGF-β1, (specific activity of 100 μCi/μg) together with increasing amounts of unlabeled TGF-β1 were added to duplicate wells. Steady state binding was carried out at 4° C. for 3 hours. After incubation cells were washed 3 times with cold binding buffer and solubilized in 200 μl of Triton solution (20 mM HEPES, 1% Triton X-100, 10% glycerol, 0.01% BSA, pH 7.4). Radioactivity was determined using a gamma spectrometer. Non-specific binding was determined in the presence of a 1,000-fold molar excess unlabeled TGF-β1.
(§2) The radioreceptor assay described in Materials and Methods was used to characterize the affinity and number of cell-surface receptors for TGF-β on HEPM cells. Specific binding of [^125 I]-iodo-TGF-βin these assays was 20% of the total radioligand present. […] Half-maximal displacement of radioligand occurred at 100 pM (2.6 ng/ml) unlabeled TGF-β1. Competitive binding data were plotted according to the method of Scatchard (Scatchard, et al., 1947, Ann. NY Acad Sci 51:660-672) and the results are presented in FIG. 5. A distinctly curvilinear isotherm was obtained indicating the presence of at least two classes of binding sites on HEPM cells. […] Quantitative analysis determined that HEPM cells contain a total of 287,000 TGF-β receptors per cell (55,400 high affinity and 231,600 low affinity sites).

For experiment [4], the target named is T1, HEPM cell-surface receptors for TGF-β (Homo sapiens, UniProt Q03167).
T1 construct: endogenous in cells; host or cells: HEPM (human embryonic palatal mesenchyme) cells, intact monolayers
T1 sequence (Q03167 21-851): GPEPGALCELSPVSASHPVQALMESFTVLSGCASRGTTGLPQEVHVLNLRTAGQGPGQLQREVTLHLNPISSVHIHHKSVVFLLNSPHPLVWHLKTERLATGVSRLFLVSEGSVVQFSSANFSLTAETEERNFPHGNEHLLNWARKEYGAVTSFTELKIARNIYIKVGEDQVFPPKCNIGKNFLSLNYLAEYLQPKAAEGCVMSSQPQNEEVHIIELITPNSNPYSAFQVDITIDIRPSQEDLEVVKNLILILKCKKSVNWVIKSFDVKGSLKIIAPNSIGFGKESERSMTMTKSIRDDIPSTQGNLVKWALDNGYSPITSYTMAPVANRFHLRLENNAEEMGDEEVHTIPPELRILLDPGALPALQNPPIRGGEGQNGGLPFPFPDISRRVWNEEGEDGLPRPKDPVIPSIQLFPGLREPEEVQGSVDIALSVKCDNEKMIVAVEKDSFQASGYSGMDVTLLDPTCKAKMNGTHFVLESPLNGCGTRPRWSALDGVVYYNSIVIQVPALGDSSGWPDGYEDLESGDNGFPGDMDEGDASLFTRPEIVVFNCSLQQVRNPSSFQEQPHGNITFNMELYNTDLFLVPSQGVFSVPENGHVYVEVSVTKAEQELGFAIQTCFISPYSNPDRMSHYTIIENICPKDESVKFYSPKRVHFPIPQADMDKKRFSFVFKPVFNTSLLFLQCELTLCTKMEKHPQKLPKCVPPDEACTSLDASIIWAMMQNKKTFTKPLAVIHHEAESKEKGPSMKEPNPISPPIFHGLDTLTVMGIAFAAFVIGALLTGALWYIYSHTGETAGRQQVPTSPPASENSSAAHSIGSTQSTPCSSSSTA
The experiment is described as above. Particulars: untreated HEPM cells, Scatchard two-site model. It is filed as binding. The protocol: as §1, §2

A further experiment concerns the target T2, TGF-β (Homo sapiens, UniProt P01137).
T2 construct: endogenous in cells; host or cells: HEPM cells
Briefly: Affinity labeling of purified soluble receptor with [125I]-iodo-TGF-β, DSS cross-linking, SDS-PAGE. The conditions noted are these: [125I]-iodo-TGF-β with or without 1,000 ng/ml unlabeled TGF-β. It is filed as binding. The protocol: FIG. 10 Ability of purified TGF-β receptor to bind TGF-β. Affinity purified receptor preparations were crosslinked to bound [^125 I]-iodo-TGF-β with DSS and analyzed on SDS-PAGE. Lanes marked (-) contained only [^125 I]-iodo-TGF-β; lanes marked (+) contained [^125 I]-iodo-TGF-β in the presence of 1,000 ng/ml unlabeled TGF-β. The 240 Kd band is specifically labeled with radioligand and has the same mobility on SDS-PAGE as the receptor-TGF-β complex from cell surface membranes (see FIG. 7).
Solubilized receptor samples (50 μl) were diluted with three volumes of binding buffer containing 0.5% v/v Triton X-100 and 50 ng/ml [^125 I]-iodo-TGF-β. The samples were incubated at 4° C. for 3 hours in the presence or absence of 1,000 ng/ml unlabeled TGF-β. Four microliters (4 μl) of 10 mM DSS in DMSO were then added. After 15 minutes the unreacted DSS was quenched by adding 20 μl of 100 mM Tris/HCl pH 7.0.
Affinity-labeled samples were incubated at 4° C. for 2 hours with 15 μl of packed WGA-sepharose beads (wheat germ aglutinin-sepharose, Sigma) with end-over-end mixing. The beads were sedimented by centrifugation at 12,000 xg for 1 minute and washed three times with a buffer solution containing 0.5% v/v Triton X-100, 10 mM Tris/HCl, mM EDTA. The washed, packed beads were heated for 5 minutes at 95° C. in the presence of 20 μl of electrophoresis sample buffer containing 5% 2-mercaptoethanol. […]

T2 sequence (P01137 279-390): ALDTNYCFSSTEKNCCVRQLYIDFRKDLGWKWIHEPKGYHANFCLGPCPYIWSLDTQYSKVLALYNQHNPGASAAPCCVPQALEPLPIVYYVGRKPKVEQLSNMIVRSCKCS

Turning to “TGF-β2: polypeptide of molecular weight 26,000 composed of two identical 13,000 dalton subunits which are disulfide linked”, the “ED50 in stimulating the proliferation of HEPM cells (half-maximal growth stimulation)” value with HEPM cells [1] worked out at 0.0023 nM. Also, in the experiment with HEPM cells [2] (0.3 ng/ml TGF-β2 alone (suboptimal dose)), the percent stimulation is given as 150%.

In the case of “TGF-β: Transforming growth factor-Beta, type not named at the place; the underlying radioreceptor and FIG. 6 data were obtained with TGF-β1”, in experiment [3], the “concentration to occupy all TGF-β receptor sites relative to concentration for maximal growth stimulatory response” value was “about 20 times”. The Kd is 0.058 nM in experiment [4] (read-out: kd, high-affinity (low capacity) site) and 0.898 nM in experiment [4] (read-out: kd, low-affinity (high capacity) site).

On to “EGF: epidermal growth factor [reference compound]”, for which the percent stimulation in the experiment on HEPM cells [2] (13 ng/ml EGF alone) turned out to be 21%.

B1: affinity purified receptor: type III TGF-β receptor affinity purified from HEPM cells, about 200-206 kd, N-terminus Lys-Tyr-Tyr-Asp-Lys-Asp-Tyr (protein, UniProt Q03167 21-851, looked up)
Transforming growth factor …: T1 sequence (Q03167 21-851)
On to B1, for which the “ability of purified receptor to bind TGF-β” value in the experiment with TGF-β is “specifically bind TGF-β”.

Values taken from patent publication US5340925A, “Normal human growth regulatory receptor for TGF-β” (Oncogen, priority 1992, dated 1994).
